In ChEMBL document CHEMBL1141625, “Potent, selective MCH-1 receptor antagonists” (Bioorg Med Chem Lett, 2008):

Experiments:
[1] = biological target: T1, Melanin-concentrating hormone receptor 1 (Homo sapiens, UniProt Q99705); test: Antagonist activity at MCHR1 by cAMP assay; format: functional
[2] = biological target: Sodium-dependent dopamine transporter (Homo sapiens) (UniProt Q01959); test: Inhibition of DAT at 10 uM
[3] = biological target: T2, 5-hydroxytryptamine receptor 1A (Homo sapiens) (UniProt P08908); test: Inhibition of 5HT1A receptor at 10 uM
T2 sequence (whole entry): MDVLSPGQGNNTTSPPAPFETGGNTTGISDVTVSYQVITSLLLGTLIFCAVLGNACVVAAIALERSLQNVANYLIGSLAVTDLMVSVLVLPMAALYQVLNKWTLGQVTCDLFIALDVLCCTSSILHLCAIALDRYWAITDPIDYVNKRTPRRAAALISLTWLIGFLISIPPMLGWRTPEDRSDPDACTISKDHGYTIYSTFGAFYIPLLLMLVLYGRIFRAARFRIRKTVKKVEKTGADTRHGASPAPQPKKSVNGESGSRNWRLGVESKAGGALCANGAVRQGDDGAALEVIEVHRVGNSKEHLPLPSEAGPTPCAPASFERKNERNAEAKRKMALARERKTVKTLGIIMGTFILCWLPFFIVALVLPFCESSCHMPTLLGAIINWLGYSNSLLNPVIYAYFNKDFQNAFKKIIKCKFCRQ

[4] = Ratio of drug level in brain to plasma in Sprague-Dawley rat after 5 mins; format: ADME; conditions: brain and plasma, read-out: BPR
[5] = Volume of distribution at steady state in Sprague-Dawley rat at 5 mg/kg, iv or 30 mg/kg, po; format: ADME, organism-based; conditions: in vivo, read-out: Vdss
[6] = biological target: Somatostatin receptor type 5 (Homo sapiens) (UniProt P35346); test: Inhibition of SST5 receptor at 10 uM
[7] = biological target: T3, Alpha-2A adrenergic receptor (Homo sapiens) (UniProt P08913); test: Inhibition of adrenergic alpha2A receptor at 10 uM
T3 sequence (whole entry): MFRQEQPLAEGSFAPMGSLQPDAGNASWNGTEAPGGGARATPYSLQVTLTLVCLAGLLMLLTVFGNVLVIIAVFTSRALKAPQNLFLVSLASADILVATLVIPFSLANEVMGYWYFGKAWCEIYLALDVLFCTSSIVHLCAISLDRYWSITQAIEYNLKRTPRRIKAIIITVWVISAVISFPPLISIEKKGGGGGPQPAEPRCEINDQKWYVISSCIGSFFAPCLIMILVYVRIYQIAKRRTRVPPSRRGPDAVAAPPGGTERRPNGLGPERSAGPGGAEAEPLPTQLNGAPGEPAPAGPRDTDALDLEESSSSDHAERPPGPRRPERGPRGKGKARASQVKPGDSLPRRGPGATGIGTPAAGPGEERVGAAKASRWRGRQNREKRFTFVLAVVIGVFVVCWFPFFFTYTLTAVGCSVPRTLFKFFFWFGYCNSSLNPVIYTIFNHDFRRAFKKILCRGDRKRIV

[8] = species: Rattus norvegicus; test: Toxicity in high fat diet fed Sprague-Dawley rat after 12 weeks; format: organism-based; conditions: in vivo, 2016 h
[9] = biological target: T4, Muscarinic acetylcholine receptor M2 (Homo sapiens) (UniProt P08172); test: Inhibition of muscarinic M2 receptor at 10 uM
T4 sequence (whole entry): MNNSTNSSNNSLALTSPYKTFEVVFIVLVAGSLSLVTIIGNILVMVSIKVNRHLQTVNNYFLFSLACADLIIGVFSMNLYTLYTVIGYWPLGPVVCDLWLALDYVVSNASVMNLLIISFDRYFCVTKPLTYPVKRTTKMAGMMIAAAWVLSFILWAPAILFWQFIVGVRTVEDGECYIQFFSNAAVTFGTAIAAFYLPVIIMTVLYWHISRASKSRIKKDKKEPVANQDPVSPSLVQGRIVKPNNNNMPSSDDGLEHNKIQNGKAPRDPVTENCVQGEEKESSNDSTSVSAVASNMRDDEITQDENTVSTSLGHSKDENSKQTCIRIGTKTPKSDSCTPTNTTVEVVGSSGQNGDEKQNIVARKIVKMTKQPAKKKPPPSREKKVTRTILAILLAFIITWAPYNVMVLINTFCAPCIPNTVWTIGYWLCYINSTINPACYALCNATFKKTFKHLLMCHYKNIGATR

[10] = tested on: Rattus norvegicus; test: Reduction of food intake in high fat diet fed Sprague-Dawley rat at 30 mg/kg, po bid; format: functional; design: scale not given: the % may be the effect or the level left
[11] = Half life in Sprague-Dawley rat at 5 mg/kg, iv or 30 mg/kg, po; format: ADME, organism-based; conditions: in vivo
[12] = tested on: Rattus norvegicus; test: Reduction of body weight in high fat diet fed Sprague-Dawley rat at 30 mg/kg, po bid after 12 weeks; format: functional; design: scale not given: the % may be the effect or the level left
[13] = biological target: D(3) dopamine receptor (Homo sapiens) (UniProt P35462); test: Inhibition of dopamine D3 receptor at 10 uM
[14] = AUC in Sprague-Dawley rat plasma at 5 mg/kg, iv or 30 mg/kg, po; format: ADME, organism-based
[15] = biological target: T1, Melanin-concentrating hormone receptor 1; test: Binding affinity to MCHR1
[16] = Oral bioavailability in Sprague-Dawley rat at 30 mg/kg; format: ADME, organism-based; conditions: in vivo
[17] = Clearance in Sprague-Dawley rat at 5 mg/kg, iv or 30 mg/kg, po; format: ADME, organism-based; conditions: in vivo
[18] = Cmax in Sprague-Dawley rat at 5 mg/kg, iv or 30 mg/kg, po; format: ADME, organism-based; conditions: in vivo
[19] = biological target: Sodium-dependent serotonin transporter (Homo sapiens) (UniProt P31645); test: Inhibition of SERT at 10 uM
[20] = biological target: Sodium-dependent noradrenaline transporter (Homo sapiens) (UniProt P23975); test: Inhibition of NET at 10 uM
[21] = biological target: T5, 5-hydroxytryptamine receptor 2C (Homo sapiens) (UniProt P28335); test: Inhibition of 5HT2C receptor at 10 uM
T5 sequence (whole entry): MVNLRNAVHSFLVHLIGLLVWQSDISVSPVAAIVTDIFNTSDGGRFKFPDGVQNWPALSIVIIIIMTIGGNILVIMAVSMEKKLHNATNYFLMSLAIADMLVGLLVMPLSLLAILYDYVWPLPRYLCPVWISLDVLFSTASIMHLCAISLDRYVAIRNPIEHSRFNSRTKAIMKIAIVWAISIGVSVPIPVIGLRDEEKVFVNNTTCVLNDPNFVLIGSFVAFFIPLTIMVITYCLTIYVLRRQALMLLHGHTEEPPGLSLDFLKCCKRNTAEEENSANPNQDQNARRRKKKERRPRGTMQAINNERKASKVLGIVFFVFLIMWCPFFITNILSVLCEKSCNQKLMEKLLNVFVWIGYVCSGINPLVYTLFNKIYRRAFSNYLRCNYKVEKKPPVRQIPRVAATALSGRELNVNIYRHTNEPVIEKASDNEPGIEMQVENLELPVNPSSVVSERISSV

Sequence of D(3) dopamine receptor (Homo sapiens) (P35462 whole entry): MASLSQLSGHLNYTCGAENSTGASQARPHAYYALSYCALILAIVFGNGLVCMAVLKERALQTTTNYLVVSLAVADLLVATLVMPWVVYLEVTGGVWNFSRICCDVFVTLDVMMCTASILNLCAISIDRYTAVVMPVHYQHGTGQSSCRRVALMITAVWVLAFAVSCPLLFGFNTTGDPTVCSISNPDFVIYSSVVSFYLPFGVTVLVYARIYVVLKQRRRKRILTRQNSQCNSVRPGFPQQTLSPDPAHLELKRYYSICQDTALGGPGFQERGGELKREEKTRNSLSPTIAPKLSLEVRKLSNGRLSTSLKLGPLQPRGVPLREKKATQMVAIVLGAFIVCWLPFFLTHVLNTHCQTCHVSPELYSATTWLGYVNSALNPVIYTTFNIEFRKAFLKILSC
Sequence of Somatostatin receptor type 5 (Homo sapiens) (P35346 whole entry): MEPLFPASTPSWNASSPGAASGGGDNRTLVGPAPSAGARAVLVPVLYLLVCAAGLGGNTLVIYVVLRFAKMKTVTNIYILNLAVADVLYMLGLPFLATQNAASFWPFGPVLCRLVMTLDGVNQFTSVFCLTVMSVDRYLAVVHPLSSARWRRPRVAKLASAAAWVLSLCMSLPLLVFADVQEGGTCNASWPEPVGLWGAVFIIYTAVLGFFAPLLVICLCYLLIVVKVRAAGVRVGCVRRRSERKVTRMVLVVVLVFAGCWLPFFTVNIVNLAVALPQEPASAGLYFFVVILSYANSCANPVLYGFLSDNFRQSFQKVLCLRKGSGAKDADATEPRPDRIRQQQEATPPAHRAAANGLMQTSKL
Sequence of Sodium-dependent serotonin transporter (Homo sapiens) (P31645 whole entry, looked up): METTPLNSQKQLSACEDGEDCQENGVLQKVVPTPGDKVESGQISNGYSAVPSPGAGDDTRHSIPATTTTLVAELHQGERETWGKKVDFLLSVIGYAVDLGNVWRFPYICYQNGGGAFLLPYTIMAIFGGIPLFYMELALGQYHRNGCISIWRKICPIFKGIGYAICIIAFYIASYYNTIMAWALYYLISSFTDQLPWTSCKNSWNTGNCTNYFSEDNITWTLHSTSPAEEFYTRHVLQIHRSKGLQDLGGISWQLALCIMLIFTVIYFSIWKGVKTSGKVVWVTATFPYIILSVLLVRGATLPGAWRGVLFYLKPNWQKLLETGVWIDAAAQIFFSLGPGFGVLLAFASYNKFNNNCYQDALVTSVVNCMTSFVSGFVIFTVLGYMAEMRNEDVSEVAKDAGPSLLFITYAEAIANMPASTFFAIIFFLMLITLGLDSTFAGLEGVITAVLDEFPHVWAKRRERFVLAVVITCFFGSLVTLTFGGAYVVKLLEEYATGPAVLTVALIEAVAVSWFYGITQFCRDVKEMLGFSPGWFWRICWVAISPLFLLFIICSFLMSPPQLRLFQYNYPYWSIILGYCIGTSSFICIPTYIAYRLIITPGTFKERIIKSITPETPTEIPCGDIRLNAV
Sequence of Sodium-dependent dopamine transporter (Homo sapiens) (Q01959 whole entry): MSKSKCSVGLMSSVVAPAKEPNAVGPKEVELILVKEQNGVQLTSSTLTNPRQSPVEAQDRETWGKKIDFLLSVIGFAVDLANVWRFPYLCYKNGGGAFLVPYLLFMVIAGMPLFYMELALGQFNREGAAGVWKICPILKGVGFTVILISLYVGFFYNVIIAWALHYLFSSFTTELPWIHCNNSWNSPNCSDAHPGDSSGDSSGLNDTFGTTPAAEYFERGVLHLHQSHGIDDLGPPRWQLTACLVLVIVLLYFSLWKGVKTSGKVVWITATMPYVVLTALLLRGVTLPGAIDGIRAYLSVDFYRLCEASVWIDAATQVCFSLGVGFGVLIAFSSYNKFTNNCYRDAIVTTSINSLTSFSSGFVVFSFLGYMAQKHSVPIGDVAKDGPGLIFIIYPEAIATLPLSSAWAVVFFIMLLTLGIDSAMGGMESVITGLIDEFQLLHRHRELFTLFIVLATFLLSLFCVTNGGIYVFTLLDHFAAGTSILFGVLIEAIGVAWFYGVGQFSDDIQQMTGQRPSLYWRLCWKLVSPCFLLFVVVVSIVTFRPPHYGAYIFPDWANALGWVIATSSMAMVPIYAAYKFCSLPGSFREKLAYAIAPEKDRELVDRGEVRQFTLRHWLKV
Sequence of Sodium-dependent noradrenaline transporter (Homo sapiens) (P23975 whole entry): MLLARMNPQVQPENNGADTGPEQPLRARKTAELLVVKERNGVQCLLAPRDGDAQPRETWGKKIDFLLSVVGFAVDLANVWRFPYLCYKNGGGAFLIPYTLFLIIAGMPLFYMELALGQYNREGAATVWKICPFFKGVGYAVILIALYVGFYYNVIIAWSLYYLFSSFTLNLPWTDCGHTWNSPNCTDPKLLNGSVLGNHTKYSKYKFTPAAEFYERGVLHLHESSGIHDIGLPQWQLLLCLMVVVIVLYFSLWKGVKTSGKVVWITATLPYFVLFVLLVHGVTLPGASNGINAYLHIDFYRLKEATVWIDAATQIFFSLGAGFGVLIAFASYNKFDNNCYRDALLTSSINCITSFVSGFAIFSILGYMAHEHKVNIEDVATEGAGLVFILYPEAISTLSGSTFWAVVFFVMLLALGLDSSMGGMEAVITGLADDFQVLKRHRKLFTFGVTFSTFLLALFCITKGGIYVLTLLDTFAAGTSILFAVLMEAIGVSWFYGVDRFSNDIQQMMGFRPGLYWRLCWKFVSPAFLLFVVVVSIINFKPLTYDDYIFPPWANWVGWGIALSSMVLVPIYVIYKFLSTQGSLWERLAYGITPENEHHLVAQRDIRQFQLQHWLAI
T1 sequence (Q99705 whole entry): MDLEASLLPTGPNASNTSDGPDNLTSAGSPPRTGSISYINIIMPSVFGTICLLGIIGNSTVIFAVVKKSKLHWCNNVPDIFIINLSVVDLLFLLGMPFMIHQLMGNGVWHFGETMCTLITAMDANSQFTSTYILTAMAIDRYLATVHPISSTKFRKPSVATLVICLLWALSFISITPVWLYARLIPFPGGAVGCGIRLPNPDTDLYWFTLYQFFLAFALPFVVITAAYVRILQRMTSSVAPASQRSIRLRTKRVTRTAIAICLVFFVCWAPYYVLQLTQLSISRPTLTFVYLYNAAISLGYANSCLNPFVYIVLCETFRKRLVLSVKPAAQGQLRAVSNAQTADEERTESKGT

Row | SMILES | EC50 [1] | Efficacy [1] | inhibition [2] | inhibition [3] | inhibition [6] | inhibition [7] | inhibition [9] | inhibition [13] | Ki [15] | inhibition [19] | inhibition [20] | inhibition [21] | also measured
1 | CO[C@@H]1CN(C[C@H]2Cc3ccc(C#N)cc3C2)CC[C@H]1n1c(C(C)(C)O)nc2cc(C)ccc21 | 17 nM | 85% | -6% | 14% | 23% | 12% | 3% | 22% | 3 nM | 6% | 12% | – | Kp at 5 min [4]: 0.9; Vd [5]: 3.6 L/kg; Activity [8]: Non-toxic; Activity [10]: 28%; half-life [11]: 1.9 h; Activity [12]: -0.7%; AUC [14]: 4730 ng·h/mL; bioavailability [16]: 47%; clearance [17]: 49.5 mL/min/kg; Cmax [18]: 1300 ng/mL
2 | CO[C@@H]1CN(C[C@@H]2Cc3ccc(NC(=O)C(C)C)cc3C2)CC[C@H]1n1c(C)nc2cc(C)ccc21 | 40 nM | 74% | 10% | – | – | 7% | 3% | – | 31 nM | 32% | 1% | 3% | Kp at 5 min [4]: 0.06; Vd [5]: 14 L/kg; half-life [11]: 2.5 h; AUC [14]: 8520 ng·h/mL; bioavailability [16]: 61%; clearance [17]: 36.5 mL/min/kg; Cmax [18]: 1280 ng/mL
3 | CO[C@@H]1CN(C[C@H]2Cc3ccc(Br)cc3C2)CC[C@H]1n1c(C)nc2cc(C)ccc21 | 20 nM | 92% | 80% | 31% | 54% | 81% | 48% | 84% | 5 nM | 59% | 69% | – | –
4 | CO[C@@H]1CN(CC2Cc3ccccc3C2)CC[C@H]1n1c(C)nc2cc(C)ccc21 | 69 nM | 90% | 8% | 63% | -2% | 33% | 6% | 40% | 47 nM | 14% | 24% | -8% | –
5 | CO[C@@H]1CN(C[C@H]2Cc3ccc(Br)cc3C2)CC[C@H]1n1c(C(C)(C)O)nc2cc(C)ccc21 | 30 nM | 98% | 68% | 17% | – | 34% | -8% | 79% | 10 nM | 28% | 77% | 14% | –
6 | COC(=O)Nc1ccc2c(c1)C[C@@H](CN1CC[C@@H](n3c(C)nc4cc(C)ccc43)[C@H](OC)C1)C2 | 20 nM | 81% | 65% | 29% | 10% | 14% | 22% | 28% | 20 nM | 95% | 64% | 8% | –
7 | CO[C@@H]1CN(C[C@H]2Cc3ccc(C#N)cc3C2)CC[C@H]1n1c(C(C)(C)O)nc2cc(C)c(F)cc21 | – | – | – | – | – | – | – | – | 0.5 nM | – | – | – | –
8 | Cc1ccc2c(c1)nc(C)n2C1CCN(CCCc2cccc(NC(=O)C(C)C)c2)CC1 | 175 nM | 96% | 23% | – | 13% | 37% | 18% | – | 25 nM | 83% | 57% | 4% | –
9 | CO[C@H]1CN(CCCc2cccc(NC(=O)C3CC3)c2)CC[C@@H]1n1c(C)nc2cc(C)ccc21 | 20 nM | 82% | 32% | – | 16% | 15% | 11% | 52% | 5.2 nM | 67% | 61% | – | –
